Measured values: the supplement of paper PMC10307832

Tests used:
Experiment in all cases: relative viability (nuclei count vs DMSO), 5 days (fraction); higher = more cells survive
201T = test system: 201T
In short: (§1)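 Lung cancer cell lines in 1536-well plates were dosed by pin tool the day after seeding, either with one drug alone or with a fixed anchor-drug dose plus five library-drug doses (not always all listed) in √10 steps. After 5 days, cells were fixed and their nuclei stained in one step (final 0.05% Triton X-100, 1% formaldehyde, 1 ug/ml Hoechst), then counted on 4× images. Relative viability is the nuclei count in treated wells divided by that in vehicle wells. Values are medians of duplicate plates.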

BEN = test system: BEN
In short: as §1

COR-L 105 = test system: COR-L 105
In short: as §1

EKVX = test system: EKVX
In short: as §1

EPLC-272H = test system: EPLC-272H
In short: as §1

H3255 = test system: H3255
In short: as §1

HCC-44 = test system: HCC-44
In short: as §1

HCC-827 = test system: HCC-827
In short: as §1

HOP-62 = test system: HOP-62
In short: as §1

LCLC-97TM1 = test system: LCLC-97TM1
In short: as §1

LOU-NH91 = test system: LOU-NH91
In short: as §1

LU99A = test system: LU99A
In short: as §1

NCI-H1395 = test system: NCI-H1395
In short: as §1

NCI-H1437 = test system: NCI-H1437
In short: as §1

NCI-H1666 = test system: NCI-H1666
In short: as §1

NCI-H1975 = test system: NCI-H1975
In short: as §1

NCI-H2085 = test system: NCI-H2085
In short: as §1

NCI-H2087 = test system: NCI-H2087
In short: as §1

NCI-H647 = test system: NCI-H647
In short: as §1

PC-3 [JPC-3] = test system: PC-3 [JPC-3]
In short: as §1

SW 1573 = test system: SW 1573
In short: as §1

**Q.** What does the source list for `O=C(O)c1ccc(-c2c[nH]c3ncc(-c4ccccc4)cc23)cc1C1CCCC1` + CC1(C)CCC(c2ccc(Cl)cc2)=C(CN2CCN(c3ccc(C(=O)NS(=O)(=O)c4ccc(N[C@H](CCN5CCOCC5)CSc5ccccc5)c(S(=O)(=O)C(F)(F)F)c4)cc3)CC2)C1 [Navitoclax] (partner 0.5 µM)?
**A.** relative viability (201T; first compound 0.04 µM): 1.23; relative viability (201T; first compound 0.1265 µM): 1.26; relative viability (201T; first compound 0.4 µM): 1.22; relative viability (201T; first compound 1.265 µM): 1.13; relative viability (BEN; first compound 0.04 µM): 0.06; relative viability (BEN; first compound 0.1265 µM): 0.057; relative viability (BEN; first compound 0.4 µM): 0.0946; relative viability (BEN; first compound 1.265 µM): 0.0505; relative viability (COR-L 105; first compound 0.04 µM): 0.818; relative viability (COR-L 105; first compound 0.1265 µM): 0.95; relative viability (COR-L 105; first compound 0.4 µM): 0.733; relative viability (COR-L 105; first compound 1.265 µM): 0.717; relative viability (EKVX; first compound 0.04 µM): 0.92; relative viability (EKVX; first compound 0.1265 µM): 0.967; relative viability (EKVX; first compound 0.4 µM): 1.03; relative viability (EKVX; first compound 1.265 µM): 0.655; relative viability (EPLC-272H; first compound 0.04 µM): 1.01; relative viability (EPLC-272H; first compound 0.1265 µM): 1.16; relative viability (EPLC-272H; first compound 0.4 µM): 1.06; relative viability (EPLC-272H; first compound 1.265 µM): 0.811; relative viability (H3255; first compound 0.04 µM): 0.572; relative viability (H3255; first compound 0.1265 µM): 0.642; relative viability (H3255; first compound 0.4 µM): 0.684; relative viability (H3255; first compound 1.265 µM): 0.463; relative viability (HCC-44; first compound 0.04 µM): 1.06; relative viability (HCC-44; first compound 0.1265 µM): 1.01; relative viability (HCC-44; first compound 0.4 µM): 0.944; relative viability (HCC-44; first compound 1.265 µM): 0.914; relative viability (HCC-827; first compound 0.04 µM): 0.95; relative viability (HCC-827; first compound 0.1265 µM): 1.04; relative viability (HCC-827; first compound 0.4 µM): 0.979; relative viability (HCC-827; first compound 1.265 µM): 0.798; relative viability (HOP-62; first compound 0.04 µM): 1.05; relative viability (HOP-62; first compound 0.1265 µM): 1.13; relative viability (HOP-62; first compound 0.4 µM): 1.05; relative viability (HOP-62; first compound 1.265 µM): 0.76; relative viability (LCLC-97TM1; first compound 0.04 µM): 0.463; relative viability (LCLC-97TM1; first compound 0.1265 µM): 0.303; relative viability (LCLC-97TM1; first compound 0.4 µM): 0.503; relative viability (LCLC-97TM1; first compound 1.265 µM): 0.396; relative viability (LOU-NH91; first compound 0.04 µM): 0.759; relative viability (LOU-NH91; first compound 0.1265 µM): 0.73; relative viability (LOU-NH91; first compound 0.4 µM): 0.68; relative viability (LOU-NH91; first compound 1.265 µM): 0.541; relative viability (LU99A; first compound 0.04 µM): 0.818; relative viability (LU99A; first compound 0.1265 µM): 0.987; relative viability (LU99A; first compound 0.4 µM): 0.735; relative viability (LU99A; first compound 1.265 µM): 0.721; relative viability (NCI-H1395; first compound 0.04 µM): 1.13; relative viability (NCI-H1395; first compound 0.1265 µM): 1.05; relative viability (NCI-H1395; first compound 0.4 µM): 1.03; relative viability (NCI-H1395; first compound 1.265 µM): 0.915; relative viability (NCI-H1437; first compound 0.04 µM): 1.03; relative viability (NCI-H1437; first compound 0.1265 µM): 1.22; relative viability (NCI-H1437; first compound 0.4 µM): 0.955; relative viability (NCI-H1437; first compound 1.265 µM): 0.407; relative viability (NCI-H1666; first compound 0.04 µM): 1.02; relative viability (NCI-H1666; first compound 0.1265 µM): 1.01; relative viability (NCI-H1666; first compound 0.4 µM): 0.849; relative viability (NCI-H1666; first compound 1.265 µM): 0.584; relative viability (NCI-H1975; first compound 0.04 µM): 1.13; relative viability (NCI-H1975; first compound 0.1265 µM): 1.25; relative viability (NCI-H1975; first compound 0.4 µM): 1.1; relative viability (NCI-H1975; first compound 1.265 µM): 1.17; relative viability (NCI-H2085; first compound 0.04 µM): 1.06; relative viability (NCI-H2085; first compound 0.1265 µM): 1.1; relative viability (NCI-H2085; first compound 0.4 µM): 1.04; relative viability (NCI-H2085; first compound 1.265 µM): 0.72; relative viability (NCI-H2087; first compound 0.04 µM): 0.856; relative viability (NCI-H2087; first compound 0.1265 µM): 1.03; relative viability (NCI-H2087; first compound 0.4 µM): 1.05; relative viability (NCI-H2087; first compound 1.265 µM): 0.857; relative viability (NCI-H647; first compound 0.04 µM): 1.1; relative viability (NCI-H647; first compound 0.1265 µM): 1.13; relative viability (NCI-H647; first compound 0.4 µM): 1.04; relative viability (NCI-H647; first compound 1.265 µM): 0.713; relative viability (PC-3 [JPC-3]; first compound 0.04 µM): 0.817; relative viability (PC-3 [JPC-3]; first compound 0.1265 µM): 0.886; relative viability (PC-3 [JPC-3]; first compound 0.4 µM): 0.7; relative viability (PC-3 [JPC-3]; first compound 1.265 µM): 0.564; relative viability (SW 1573; first compound 0.04 µM): 1.02; relative viability (SW 1573; first compound 0.1265 µM): 1.22; relative viability (SW 1573; first compound 0.4 µM): 1.05; relative viability (SW 1573; first compound 1.265 µM): 0.619
